Measured values published in patent publication US20250179440A1, “METHOD FOR CULTURING CANCER ORGANOID AND METHOD FOR SCREENING TEST SUBSTANCE” (TOPPAN Holdings Inc., priority 2022, published 2025).

Tested on: blood vessel network of the cell structure (HUVEC/NHDF)
Test: Blood vessel network formation in the cell structure co-cultured with PDOs (anti-CD31 immunostaining)
Type: cell-based, human
Details: added factor of EGM2 added singly to DMEM and EBM2; FIGS. 9 and 10
Procedure: The pre-culture of the patient-derived PDOs and the preparation of the cell structure were performed by the same method as in Example 1. For the co-culture of the PDOs and the cell structure, a method for top surface culture of the cell structure using single-celled PDOs was adopted. In addition, regarding the sample for which the culture was continued, the co-culture of the PDOs and the cell structure was performed by the same method as in Example 1, except that the medium was replaced using each medium at a timing of once every three or four days. Fluorescence immunostaining, image capturing, and image analysis were performed by the same methods as in Example 1. Next, in order to identify the inhibitory factors among the added factors, media obtained by adding each of the added factors of EGM2 shown in Table 7 to D-MEM and EBM2, and media obtained by excluding each of the added factors shown in Table 7 from EGM2 were prepared, and vascular network evaluation was performed. The scale bars in FIGS. 9 and 10 indicate 500 μm. […] In FIG. 10, +means that the added factor is included, and −means that the added factor is excluded.

## C[C@]12CCC(=O)C=C1CC[C@@H]1[C@@H]2[C@@H](O)C[C@@]2(C)[C@H]1CC[C@]2(O)C(=O)CO [Hydrocortisone]
  formation of the blood vessel network: the formation of the blood vessel network was suppressed
